Data taken from the kinase profiling compilation of Christmann-Franck et al. (2016).
Values belong to the compound of their own block, whether it stands above or below them.

Tests used:
Assay in all cases: radiometric filter-binding kinase assay
[1] = molecular target: PAK4 (human) (UniProt O96013)
[2] = molecular target: INSRR (human) (UniProt P14616)
[3] = molecular target: EPHB3 (human) (UniProt P54753)
[4] = molecular target: NTRK1 (human) (UniProt P04629)
[5] = molecular target: MAP2K1 (human) (UniProt Q02750)
[6] = molecular target: PIM2 (human) (UniProt Q9P1W9)
[7] = molecular target: INSR (human) (UniProt P06213)
[8] = molecular target: PRKACA (human) (UniProt P17612)
[9] = molecular target: CHEK1 (human) (UniProt O14757)
[10] = molecular target: DYRK1A (human) (UniProt Q13627)
[11] = molecular target: PRKCZ (human) (UniProt Q05513)
[12] = molecular target: CDK2 CCNA2 (human) (UniProt P20248+P24941)
[13] = molecular target: MAP3K9 (human) (UniProt P80192)
[14] = molecular target: MST4 (human) (UniProt Q9P289)
MST4 (human), sequence (Q9P289 whole entry, looked up): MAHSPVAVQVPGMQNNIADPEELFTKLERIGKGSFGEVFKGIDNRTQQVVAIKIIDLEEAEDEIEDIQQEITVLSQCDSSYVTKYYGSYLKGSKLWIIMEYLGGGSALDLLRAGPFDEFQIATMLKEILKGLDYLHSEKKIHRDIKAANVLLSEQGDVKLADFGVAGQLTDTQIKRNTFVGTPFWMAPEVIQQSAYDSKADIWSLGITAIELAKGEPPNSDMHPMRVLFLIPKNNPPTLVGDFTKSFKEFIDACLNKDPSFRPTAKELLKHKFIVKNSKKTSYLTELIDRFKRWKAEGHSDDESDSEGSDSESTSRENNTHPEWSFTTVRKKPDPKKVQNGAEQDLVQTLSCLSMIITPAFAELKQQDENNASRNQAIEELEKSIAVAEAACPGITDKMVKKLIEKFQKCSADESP

[15] = molecular target: MARK3 (human) (UniProt P27448)
MARK3 (human), sequence (P27448 whole entry, looked up): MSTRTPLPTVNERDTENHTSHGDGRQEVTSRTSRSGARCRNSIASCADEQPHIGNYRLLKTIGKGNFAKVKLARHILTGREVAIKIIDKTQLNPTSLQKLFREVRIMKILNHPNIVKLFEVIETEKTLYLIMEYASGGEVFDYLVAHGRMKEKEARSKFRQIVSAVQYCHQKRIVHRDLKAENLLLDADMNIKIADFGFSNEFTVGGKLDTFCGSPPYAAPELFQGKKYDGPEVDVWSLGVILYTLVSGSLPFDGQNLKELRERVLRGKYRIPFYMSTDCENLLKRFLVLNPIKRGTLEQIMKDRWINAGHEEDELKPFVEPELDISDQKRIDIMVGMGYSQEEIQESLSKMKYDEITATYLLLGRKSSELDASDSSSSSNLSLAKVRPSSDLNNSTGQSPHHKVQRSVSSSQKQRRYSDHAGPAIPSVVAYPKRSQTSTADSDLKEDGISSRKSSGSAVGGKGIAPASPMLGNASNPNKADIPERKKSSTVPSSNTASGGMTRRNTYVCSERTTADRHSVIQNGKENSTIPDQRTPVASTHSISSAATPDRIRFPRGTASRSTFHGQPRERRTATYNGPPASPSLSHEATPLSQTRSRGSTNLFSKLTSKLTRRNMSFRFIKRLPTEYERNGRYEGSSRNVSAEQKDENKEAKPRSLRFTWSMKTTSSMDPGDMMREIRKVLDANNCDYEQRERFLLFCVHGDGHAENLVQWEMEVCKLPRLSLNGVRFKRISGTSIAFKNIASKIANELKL

[16] = tested on: LCK (mouse); conditions: accession and sequence are those of the human protein
[17] = molecular target: SRC (human) (UniProt P12931)
[18] = molecular target: CaMK1 (human) (UniProt Q14012)
[19] = molecular target: MAP3K11 (human) (UniProt Q16584)
MAP3K11 (human), sequence (Q16584 whole entry, looked up): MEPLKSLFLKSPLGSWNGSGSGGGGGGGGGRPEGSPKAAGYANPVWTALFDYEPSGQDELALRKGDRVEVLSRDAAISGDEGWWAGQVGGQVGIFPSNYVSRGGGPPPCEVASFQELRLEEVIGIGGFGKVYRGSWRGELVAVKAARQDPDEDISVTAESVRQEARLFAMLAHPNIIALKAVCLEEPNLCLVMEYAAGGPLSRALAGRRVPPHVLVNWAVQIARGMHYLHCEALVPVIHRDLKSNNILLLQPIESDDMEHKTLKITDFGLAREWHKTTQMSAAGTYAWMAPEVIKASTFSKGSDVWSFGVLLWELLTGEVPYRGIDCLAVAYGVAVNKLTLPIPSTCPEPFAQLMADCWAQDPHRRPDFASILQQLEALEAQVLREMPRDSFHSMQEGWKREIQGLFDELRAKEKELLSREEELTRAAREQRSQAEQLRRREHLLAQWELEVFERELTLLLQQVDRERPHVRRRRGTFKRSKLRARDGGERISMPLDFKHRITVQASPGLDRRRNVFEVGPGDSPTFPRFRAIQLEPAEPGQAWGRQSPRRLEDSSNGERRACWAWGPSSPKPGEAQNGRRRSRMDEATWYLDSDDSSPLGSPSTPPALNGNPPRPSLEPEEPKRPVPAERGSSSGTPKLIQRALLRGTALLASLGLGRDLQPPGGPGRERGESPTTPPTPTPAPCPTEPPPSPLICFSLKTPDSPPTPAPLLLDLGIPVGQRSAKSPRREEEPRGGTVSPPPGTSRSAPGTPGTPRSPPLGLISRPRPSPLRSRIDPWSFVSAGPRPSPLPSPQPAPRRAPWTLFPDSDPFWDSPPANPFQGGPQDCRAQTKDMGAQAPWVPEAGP

[20] = molecular target: YES1 (human) (UniProt P07947)
YES1 (human), sequence (P07947 whole entry, looked up): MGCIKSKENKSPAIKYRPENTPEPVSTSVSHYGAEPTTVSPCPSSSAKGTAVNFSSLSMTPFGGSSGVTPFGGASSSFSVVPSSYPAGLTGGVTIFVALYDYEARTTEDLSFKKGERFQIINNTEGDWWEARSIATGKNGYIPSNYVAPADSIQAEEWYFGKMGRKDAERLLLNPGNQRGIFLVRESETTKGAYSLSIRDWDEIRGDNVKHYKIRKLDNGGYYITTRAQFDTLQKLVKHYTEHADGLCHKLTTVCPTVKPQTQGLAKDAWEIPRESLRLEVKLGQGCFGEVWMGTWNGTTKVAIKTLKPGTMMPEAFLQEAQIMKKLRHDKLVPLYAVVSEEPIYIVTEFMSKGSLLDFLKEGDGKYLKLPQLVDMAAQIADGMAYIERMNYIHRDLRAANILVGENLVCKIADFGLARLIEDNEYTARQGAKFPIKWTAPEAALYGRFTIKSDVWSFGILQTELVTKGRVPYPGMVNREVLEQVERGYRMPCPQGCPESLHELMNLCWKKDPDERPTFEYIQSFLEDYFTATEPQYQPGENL

[21] = molecular target: SYK (human) (UniProt P43405)
[22] = tested on: PRKAA1 or PRKAA2 (rat); conditions: accession and sequence are those of the human protein
[23] = molecular target: IGF1R (human) (UniProt P08069)
[24] = molecular target: CAMKK2 (human) (UniProt Q96RR4)
[25] = molecular target: CSNK2A1 (human) (UniProt P68400)
[26] = molecular target: MINK1 (human) (UniProt Q8N4C8)
[27] = molecular target: RIPK2 (human) (UniProt O43353)
[28] = molecular target: AURKB (human) (UniProt Q96GD4)
[29] = molecular target: JAK2 JH1 JH2 (human) (UniProt O60674)
[30] = tested on: AKT2 (human), P31751 [S474D]
[31] = molecular target: NUAK1 (human) (UniProt O60285)
[32] = molecular target: MKNK1 (human) (UniProt Q9BUB5)
[33] = molecular target: MAPK10 (human) (UniProt P53779)
MAPK10 (human), sequence (P53779 whole entry, looked up): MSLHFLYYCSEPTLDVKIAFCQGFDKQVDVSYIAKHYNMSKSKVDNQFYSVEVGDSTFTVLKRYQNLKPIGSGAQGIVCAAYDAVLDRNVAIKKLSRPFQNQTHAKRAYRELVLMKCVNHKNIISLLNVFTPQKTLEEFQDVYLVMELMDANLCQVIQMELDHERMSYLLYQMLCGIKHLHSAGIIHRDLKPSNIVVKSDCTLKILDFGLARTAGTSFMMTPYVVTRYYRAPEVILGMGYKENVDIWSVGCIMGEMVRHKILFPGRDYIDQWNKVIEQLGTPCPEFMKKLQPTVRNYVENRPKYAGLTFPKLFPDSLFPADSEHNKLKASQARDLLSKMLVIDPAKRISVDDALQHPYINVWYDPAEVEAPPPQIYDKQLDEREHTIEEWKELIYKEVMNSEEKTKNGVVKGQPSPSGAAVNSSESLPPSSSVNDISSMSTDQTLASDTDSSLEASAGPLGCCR

[34] = molecular target: MAPK13 (human) (UniProt O15264)
[35] = molecular target: MARK4 (human) (UniProt Q96L34)
MARK4 (human), sequence (Q96L34 whole entry, looked up): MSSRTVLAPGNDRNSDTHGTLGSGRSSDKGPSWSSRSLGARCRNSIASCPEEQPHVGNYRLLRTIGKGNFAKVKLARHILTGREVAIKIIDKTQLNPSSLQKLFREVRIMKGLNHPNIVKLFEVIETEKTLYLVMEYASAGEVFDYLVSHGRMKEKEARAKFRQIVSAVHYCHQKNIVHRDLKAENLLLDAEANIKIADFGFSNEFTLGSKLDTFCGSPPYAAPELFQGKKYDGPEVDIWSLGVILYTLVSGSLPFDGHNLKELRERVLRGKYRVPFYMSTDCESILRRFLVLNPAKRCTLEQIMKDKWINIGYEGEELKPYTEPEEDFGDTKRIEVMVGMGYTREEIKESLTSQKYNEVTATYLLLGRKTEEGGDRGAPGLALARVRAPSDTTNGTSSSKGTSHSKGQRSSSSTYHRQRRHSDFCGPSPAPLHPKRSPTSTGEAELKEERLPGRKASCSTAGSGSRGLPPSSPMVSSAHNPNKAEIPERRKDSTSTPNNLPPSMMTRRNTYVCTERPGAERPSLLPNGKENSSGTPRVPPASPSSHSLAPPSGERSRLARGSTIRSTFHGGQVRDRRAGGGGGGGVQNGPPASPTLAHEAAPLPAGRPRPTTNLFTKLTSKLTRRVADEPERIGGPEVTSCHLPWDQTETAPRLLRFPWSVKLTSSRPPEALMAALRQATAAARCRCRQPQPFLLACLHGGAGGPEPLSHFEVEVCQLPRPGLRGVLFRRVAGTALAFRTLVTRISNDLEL

[36] = molecular target: PHKG1 (human) (UniProt Q16816)

EPHB3 (human), sequence (P54753 whole entry, looked up): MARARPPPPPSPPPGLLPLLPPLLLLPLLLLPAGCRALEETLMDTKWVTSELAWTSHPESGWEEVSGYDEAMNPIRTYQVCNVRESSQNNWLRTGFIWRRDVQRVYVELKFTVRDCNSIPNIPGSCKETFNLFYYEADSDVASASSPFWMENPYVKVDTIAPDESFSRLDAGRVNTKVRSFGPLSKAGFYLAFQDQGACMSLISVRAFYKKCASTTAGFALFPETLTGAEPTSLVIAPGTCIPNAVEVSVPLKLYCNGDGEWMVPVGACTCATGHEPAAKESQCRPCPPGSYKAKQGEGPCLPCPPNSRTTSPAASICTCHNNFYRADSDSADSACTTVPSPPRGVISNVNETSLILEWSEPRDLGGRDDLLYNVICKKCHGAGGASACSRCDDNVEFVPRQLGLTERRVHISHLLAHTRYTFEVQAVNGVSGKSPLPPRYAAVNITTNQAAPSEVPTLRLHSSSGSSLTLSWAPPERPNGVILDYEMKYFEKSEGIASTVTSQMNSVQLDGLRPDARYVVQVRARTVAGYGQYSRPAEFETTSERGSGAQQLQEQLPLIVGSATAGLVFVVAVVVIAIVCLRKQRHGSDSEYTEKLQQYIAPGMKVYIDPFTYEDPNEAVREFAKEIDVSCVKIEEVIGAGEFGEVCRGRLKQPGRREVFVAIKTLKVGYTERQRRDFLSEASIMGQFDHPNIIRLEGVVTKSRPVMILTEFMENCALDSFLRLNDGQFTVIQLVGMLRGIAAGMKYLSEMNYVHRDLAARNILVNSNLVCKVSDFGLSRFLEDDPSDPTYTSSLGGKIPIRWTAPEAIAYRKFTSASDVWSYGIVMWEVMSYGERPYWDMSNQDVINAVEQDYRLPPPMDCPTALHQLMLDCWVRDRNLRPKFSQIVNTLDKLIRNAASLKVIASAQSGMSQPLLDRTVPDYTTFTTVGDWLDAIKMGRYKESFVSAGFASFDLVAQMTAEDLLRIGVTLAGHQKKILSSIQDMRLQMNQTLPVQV

residual activity ([1]; compound 0.1 µM): 94% | residual activity ([1]; compound 1.0 µM): 81% | residual activity ([2]; compound 1.0 µM): 96% | residual activity ([3]; compound 0.1 µM): 111% | residual activity ([3]; compound 1.0 µM): 100% | residual activity ([4]; compound 0.1 µM): 46% | residual activity ([4]; compound 1.0 µM): 24% | residual activity ([5]; compound 0.1 µM): 13% | residual activity ([5]; compound 1.0 µM): 2% | residual activity ([6]; compound 0.1 µM): 91% | residual activity ([6]; compound 1.0 µM): 106% | residual activity ([7]; compound 0.1 µM): 110% | residual activity ([7]; compound 1.0 µM): 94% | residual activity ([8]; compound 0.1 µM): 99% | residual activity ([8]; compound 1.0 µM): 93% | residual activity ([9]; compound 0.1 µM): 114% | residual activity ([9]; compound 1.0 µM): 92% | residual activity ([10]; compound 0.1 µM): 117% | residual activity ([10]; compound 1.0 µM): 97% | residual activity ([11]; compound 0.1 µM): 105% | residual activity ([11]; compound 1.0 µM): 99% | residual activity ([12]; compound 0.1 µM): 119% | residual activity ([12]; compound 1.0 µM): 88% | residual activity ([13]; compound 0.1 µM): 109% | residual activity ([13]; compound 1.0 µM): 75% | residual activity ([14]; compound 0.1 µM): 129% | residual activity ([14]; compound 1.0 µM): 72% | residual activity ([15]; compound 0.1 µM): 116% | residual activity ([15]; compound 1.0 µM): 77% | residual activity ([16]; compound 0.1 µM): 78% | residual activity ([16]; compound 1.0 µM): 30% | residual activity ([17]; compound 0.1 µM): 106% | residual activity ([17]; compound 1.0 µM): 43% | residual activity ([18]; compound 0.1 µM): 88% | residual activity ([18]; compound 1.0 µM): 105% | residual activity ([19]; compound 0.1 µM): 114% | residual activity ([19]; compound 1.0 µM): 79% | residual activity ([20]; compound 1.0 µM): 60% | residual activity ([21]; compound 0.1 µM): 88% | residual activity ([21]; compound 1.0 µM): 77% | residual activity ([22]; compound 0.1 µM): 100% | residual activity ([22]; compound 1.0 µM): 92% | residual activity ([23]; compound 0.1 µM): 100% | residual activity ([23]; compound 1.0 µM): 93% | residual activity ([24]; compound 0.1 µM): 87% | residual activity ([24]; compound 1.0 µM): 57% | residual activity ([25]; compound 0.1 µM): 106% | residual activity ([25]; compound 1.0 µM): 77% | residual activity ([26]; compound 0.1 µM): 101% | residual activity ([26]; compound 1.0 µM): 83% | residual activity ([27]; compound 0.1 µM): 103% | residual activity ([27]; compound 1.0 µM): 39% | residual activity ([28]; compound 0.1 µM): 94% | residual activity ([28]; compound 1.0 µM): 74% | residual activity ([29]; compound 0.1 µM): 108% | residual activity ([29]; compound 1.0 µM): 75% | residual activity ([30]; compound 0.1 µM): 86% | residual activity ([30]; compound 1.0 µM): 84% | residual activity ([31]; compound 0.1 µM): 113% | residual activity ([31]; compound 1.0 µM): 78% | residual activity ([32]; compound 0.1 µM): 55% | residual activity ([32]; compound 1.0 µM): 13% | residual activity ([33]; compound 0.1 µM): 107% | residual activity ([33]; compound 1.0 µM): 90% | residual activity ([34]; compound 0.1 µM): 99% | residual activity ([34]; compound 1.0 µM): 114% | residual activity ([35]; compound 0.1 µM): 107% | residual activity ([35]; compound 1.0 µM): 86% | residual activity ([36]; compound 0.1 µM): 100% | residual activity ([36]; compound 1.0 µM): 89%
Compound: COc1cc(O)c2c(c1)/C=C/C[C@H](O)[C@H](O)C(=O)/C=C\C[C@H](C)OC2=O

residual activity ([1]; compound 0.01 µM): 25% | residual activity ([1]; compound 0.1 µM): 7% | residual activity ([1]; compound 1.0 µM): 7% | residual activity ([2]; compound 0.01 µM): 47% | residual activity ([2]; compound 0.1 µM): 12% | residual activity ([2]; compound 1.0 µM): 9% | residual activity ([3]; compound 0.01 µM): 106% | residual activity ([3]; compound 0.1 µM): 100% | residual activity ([3]; compound 1.0 µM): 83% | residual activity ([4]; compound 0.01 µM): 5% | residual activity ([4]; compound 0.1 µM): 3% | residual activity ([4]; compound 1.0 µM): 2% | residual activity ([5]; compound 0.01 µM): 9% | residual activity ([5]; compound 0.1 µM): 0% | residual activity ([5]; compound 1.0 µM): 0% | residual activity ([6]; compound 0.01 µM): 93% | residual activity ([6]; compound 0.1 µM): 30% | residual activity ([6]; compound 1.0 µM): 4% | residual activity ([7]; compound 0.01 µM): 120% | residual activity ([7]; compound 0.1 µM): 76% | residual activity ([7]; compound 1.0 µM): 11% | residual activity ([8]; compound 0.01 µM): 29% | residual activity ([8]; compound 0.1 µM): 5% | residual activity ([8]; compound 1.0 µM): 2% | residual activity ([9]; compound 0.01 µM): 11% | residual activity ([9]; compound 0.1 µM): 4% | residual activity ([9]; compound 1.0 µM): 3% | residual activity ([10]; compound 0.01 µM): 29% | residual activity ([10]; compound 0.1 µM): 8% | residual activity ([10]; compound 1.0 µM): 3% | residual activity ([11]; compound 0.01 µM): 110% | residual activity ([11]; compound 0.1 µM): 56% | residual activity ([11]; compound 1.0 µM): 15% | residual activity ([12]; compound 0.01 µM): 18% | residual activity ([12]; compound 0.1 µM): 9% | residual activity ([12]; compound 1.0 µM): 8% | residual activity ([13]; compound 0.01 µM): 3% | residual activity ([13]; compound 0.1 µM): 2% | residual activity ([13]; compound 1.0 µM): 2% | residual activity ([14]; compound 0.01 µM): 86% | residual activity ([14]; compound 0.1 µM): 26% | residual activity ([14]; compound 1.0 µM): 20% | residual activity ([15]; compound 0.01 µM): 7% | residual activity ([15]; compound 0.1 µM): 3% | residual activity ([15]; compound 1.0 µM): 2% | residual activity ([16]; compound 0.01 µM): 44% | residual activity ([16]; compound 0.1 µM): 13% | residual activity ([16]; compound 1.0 µM): 3% | residual activity ([17]; compound 0.01 µM): 78% | residual activity ([17]; compound 0.1 µM): 19% | residual activity ([17]; compound 1.0 µM): 6% | residual activity ([18]; compound 0.01 µM): 97% | residual activity ([18]; compound 0.1 µM): 25% | residual activity ([18]; compound 1.0 µM): 4% | residual activity ([19]; compound 0.01 µM): 17% | residual activity ([19]; compound 0.1 µM): 5% | residual activity ([19]; compound 1.0 µM): 3% | residual activity ([20]; compound 0.01 µM): 76% | residual activity ([20]; compound 0.1 µM): 20% | residual activity ([20]; compound 1.0 µM): 2% | residual activity ([21]; compound 0.01 µM): 21% | residual activity ([21]; compound 0.1 µM): 6% | residual activity ([21]; compound 1.0 µM): 2% | residual activity ([22]; compound 0.01 µM): 6% | residual activity ([22]; compound 0.1 µM): 2% | residual activity ([22]; compound 1.0 µM): 1% | residual activity ([23]; compound 0.01 µM): 87% | residual activity ([23]; compound 0.1 µM): 64% | residual activity ([23]; compound 1.0 µM): 3% | residual activity ([24]; compound 0.01 µM): 64% | residual activity ([24]; compound 0.1 µM): 14% | residual activity ([24]; compound 1.0 µM): 11% | residual activity ([25]; compound 0.01 µM): 106% | residual activity ([25]; compound 0.1 µM): 108% | residual activity ([25]; compound 1.0 µM): 80% | residual activity ([26]; compound 0.01 µM): 4% | residual activity ([26]; compound 0.1 µM): 3% | residual activity ([26]; compound 1.0 µM): 2% | residual activity ([27]; compound 0.01 µM): 80% | residual activity ([27]; compound 0.1 µM): 26% | residual activity ([27]; compound 1.0 µM): 9% | residual activity ([28]; compound 0.01 µM): 49% | residual activity ([28]; compound 0.1 µM): 46% | residual activity ([28]; compound 1.0 µM): 39% | residual activity ([29]; compound 0.01 µM): 10% | residual activity ([29]; compound 0.1 µM): 12% | residual activity ([29]; compound 1.0 µM): 7% | residual activity ([30]; compound 0.01 µM): 109% | residual activity ([30]; compound 0.1 µM): 51% | residual activity ([30]; compound 1.0 µM): 8% | residual activity ([31]; compound 0.01 µM): 2% | residual activity ([31]; compound 0.1 µM): 2% | residual activity ([31]; compound 1.0 µM): 1% | residual activity ([32]; compound 0.01 µM): 61% | residual activity ([32]; compound 0.1 µM): 16% | residual activity ([32]; compound 1.0 µM): 9% | residual activity ([33]; compound 0.01 µM): 65% | residual activity ([33]; compound 0.1 µM): 30% | residual activity ([33]; compound 1.0 µM): 26% | residual activity ([34]; compound 0.01 µM): 100% | residual activity ([34]; compound 0.1 µM): 97% | residual activity ([34]; compound 1.0 µM): 48% | residual activity ([35]; compound 0.01 µM): 10% | residual activity ([35]; compound 0.1 µM): 2% | residual activity ([35]; compound 1.0 µM): 1% | residual activity ([36]; compound 0.1 µM): 1% | residual activity ([36]; compound 1.0 µM): 1%
Compound: CNC(=O)C1[C@H]2O[C@@](C)([C@@H]1N)n1c3ccccc3c3c4c(c5c6ccccc6n2c5c31)C(=O)NC4 (some centres not stated)
